Test results from patent US11540539B2, “Reduced sodium food products” (GENERAL MILLS, INC., priority 2013, dated 2023).

Experiments:
perception of saltiness [1] = experiment: Broth DAP test: trained panel rates saltiness of compounds in simple broth; assay type: in vivo; conditions: individual compounds in simple broth; DAP score greater than 7.6 indicates saltiness or salt enhancement
Description: (§1) Briefly, each individual tested compound was placed in water and in sodium solution to test saltiness and saltiness enhancement potential. Tests in water were executed in a compound concentration of 10 ppm. Tests in sodium solution were executed in compound concentrations of 0.1, 1 and 10 ppm. Two control sodium solutions with known organoleptic salt intensities were provided as references for each test. The test for individual compounds was also conducted using simple broth instead of sodium solution. A number of compound combinations identified from the Na-solution DAP test were used for the broth DAP test. Tests were executed with a trained panel of 9-12 assessors. For Na-solution DAP tests, a DAP score of greater than 3.1 indicates saltiness or salt enhancement. The DAP score can be correlated with a sodium reduction potential by subtracting 3.1 from the DAP score.

perception of saltiness [2] = experiment: Na-solution DAP test: trained panel rates saltiness of compounds in sodium solution; assay type: in vivo; conditions: individual compounds in sodium solution; compound concentrations of 0.1, 1 and 10 ppm; DAP score greater than 3.1 indicates saltiness or salt enhancement
Description: as §1

SMILES	DAP in Broth (perception of saltiness [1])	DAP in Na-Sol. (perception of saltiness [2])
COc1c2ccoc2c(OCC=C(C)C)c2oc(=O)ccc12 [Compound 65]	7.9	3.3
C=CC(C)(O)CC/C=C(\C)C(=O)OC1C(OCC2OC(OC(=O)C34CCC(C)(C)CC3C3=CCC5C6(C)CCC(OC7OC(COC8OCC(O)C(O)C8OC8OCC(O)C(O)C8O)C(O)C(O)C7O)C(C)(C)C6CCC5(C)C3(C)CC4O)C(OC3OC(C)C(OC4OCC(O)C(OC5OCC(O)C(O)C5O)C4O)C(O)C3O)C(OC(=O)/C(C)=C/CCC(C)(O)C=C)C2O)OC(C)C(O)C1O (stereo not drawn) [Compound 35]	8.1	3.7
CC(=O)OC1CCC2(C)C(COc3ccc4ccc(=O)oc4c3)C(C)(O)CCC2C1(C)C (stereo not drawn) [Compound 66]	7.8	3.2
C=CCCCCCCC(C(=O)O)C(O)CC(=O)O (stereo not drawn) [Compound 81]	7.8	3.2
COc1cc(CNC(=O)CCCCCCC(C)C)ccc1O [Compound 21]		4
COc1cc2c(c(OC)c1OC)-c1c(cc(OC)c(OC)c1OC)C[C@H](C)[C@H](C)C2 [Compound 45]	8.2	
C[C@H]1[C@H](C)CC[C@]2(C(=O)O)CC[C@]3(C)C(=CC[C@@H]4[C@@]5(C)CC[C@H](O)C(C)(C)[C@@H]5CC[C@]43C)[C@H]12 [Compound 43]	8.0	
C[C@]12CC[C@H](O)C[C@H]1CC[C@@H]1[C@@H]2CC[C@]2(C)[C@@H](C3=CC(=O)OC3)CC[C@]12O [Compound 73]	8.0	3.5
CCCCC/C=C/C=C/C(O)CCCCCCCC(=O)O (stereo not drawn) [Compound 88]	8.0	
CC(=O)OC1C(O)COC(OC2C(O)C(C)OC(OC(C)(CCC=C(C)C)C3C(O)CC4(C)C3CCC3C5(C)CCC(OC6OCC(O)C(O)C6O)C(C)(C)C5CCC34C)C2O)C1O (stereo not drawn) [Compound 38]	8.1	3.9
CC1CCC2(OC1)OC1CC3C4CCC5CC(OC6OC(CO)C(OC7OC(CO)C(O)C(OC8OC(CO)C(O)C(OC9OCC(O)C(O)C9O)C8O)C7O)C(OC7OCC(O)C(O)C7O)C6O)CCC5(C)C4CC(=O)C3(C)C1C2C (stereo not drawn) [Compound 37]	8.1	3.7
COc1c2ccoc2cc2oc(=O)ccc12 [Compound 62]	78.0	3.9
COc1cc(C2c3cc4c(cc3CC3COC(=O)C32)OCO4)cc(OC)c1OC (stereo not drawn) [Compound 59]	7.9	3.3
CC/C=C\C=C\C(O)C/C=C\CCCCCCCC(=O)O (stereo not drawn) [Compound 86]	8.0	3.9
CCCCCCCCCCNC(C)=O [Compound 84]	8.1	3.8
CCCCC/C=C\CCCCCCc1cc(=O)c2ccccc2n1C [Compound 16]	8.0	
COc1cc2oc(=O)ccc2c(OC)c1CC=C(C)C [Compound 28]		3.6
CC(C)C(=O)c1c2c(c3oc(=O)cc(-c4ccccc4)c3c1O)CC(C(C)(C)O)O2 (stereo not drawn) [Compound 60]	8.1	3.8
CCC/C=C\C/C=C\CCCC/C=C\Cc1cc(O)cc(O)c1 [Compound 10]	7.9	
CC(C)=CCOc1c2occc2cc2ccc(=O)oc12 [Compound 64]	7.8	3.7
COc1cc(CCC(O)CC(=O)CCc2ccccc2)ccc1O (stereo not drawn) [Compound 12]	7.6	
CC1(C)CC[C@]2(C(=O)O)CC[C@]3(C)C(=CCC4[C@@]5(C)C[C@@H](O)[C@H](O)C(C)(C)C5CC[C@]43C)C2C1 (stereo partly drawn) [Compound 42]	8.1	3.1
O=C(/C=C/C=C/c1ccc2c(c1)OCO2)N1CCCCC1 [Compound 18]	8.1	

SMILES	DAP in Broth (perception of saltiness [1])	DAP in Na-Sol. (perception of saltiness [2])
CC/C=C\C/C=C\C=C\[C@H](O)CCCCCCCC(=O)O [Compound 85]		2.9
CCCCCCCCC/C=C/C(=O)CCc1ccc(O)c(OC)c1 [Compound 2]	7.8	
COc1cc(O)c(C(C)=O)c(OC)c1 [Compound 53]	8.5	
COc1cc(COC(=O)CCCC/C=C/C(C)C)ccc1O [Compound 13]	7.9	
COc1cc(CC/C=C/C(=O)CCc2ccccc2)ccc1O [Compound 11]	8.1	
CCCCCCCC/C=C/C(O)CCCCCCC(=O)OCC(O)CO (stereo not drawn) [Compound 87]	8.0	
C=CCCCCCCCCCCC[C@H](O)C[C@H](O)CO [Compound 82]	8.3	3.8
CC(C)(O)C(O)COc1c2ccoc2cc2oc(=O)ccc12 (stereo not drawn) [Compound 63]	8.0	
C=C[C@@]1(C)CC(=O)C2[C@]3(C)C(C[C@@H](O)[C@@]2(O)C1=O)C(C)(C)[C@H](OC(C)=O)[C@H](OC(C)=O)[C@@H]3OC(=O)c1ccccc1 (stereo partly drawn) [Compound 32]	8.1	
C=CC(C)(O)CCC1(C)C2=C(C(OC(C)=O)C(OC(C)=O)C1C)C(C)(C)CCC2 (stereo not drawn) [Compound 29]	8.0	
CCCCCCCCCCC[C@@H](O)CC(=O)CCc1ccc(O)c(OC)c1 [Compound 1]	7.8	
C=CCCCCCCCCCCCC(CC(O)COC(C)=O)OC(C)=O (stereo not drawn) [Compound 83]	8.1	4.2
CC(=O)O[C@@H]1CC2C(C)(C)C(=O)C=C[C@]2(C)C2CC[C@]3(C)C(=CC(=O)C3c3ccoc3)[C@@]21C (stereo partly drawn) [Compound 74]	7.7	3.2
CC(C)CNC(=O)/C=C/C=C/CCCCCC/C=C/c1ccc2c(c1)OCO2 [Compound 15]	8.1	3.5
COC1CC(OC2CCC3(C=O)C(CCC4C3CCC3(C)C(C5=CC(=O)OC5)CCC43O)C2)OC(C)C1OC1OC(CO)C(O)C(O)C1O (stereo not drawn) [Compound 76]	8.0	3.2
C/C=C(\C)C(=O)O[C@H]1[C@H](O)[C@]2(CO)[C@H](O)C[C@]3(C)C(=CCC4[C@@]5(C)CC[C@H](O[C@@H]6O[C@H](C(=O)O)[C@@H](O[C@@H]7O[C@H](CO)[C@@H](O)[C@H](O)[C@H]7O)[C@H](O)[C@H]6O[C@@H]6O[C@H](CO)[C@@H](O)[C@H](O)[C@H]6O)[C@](C)(CO)C5CC[C@]43C)[C@@H]2CC1(C)C (stereo partly drawn) [Compound 34]	7.7	
CCCCCC(CC(CCc1ccc(O)c(OC)c1)OC(C)=O)OC(C)=O (stereo not drawn) [Compound 3]	8.8	
COc1cc2c(c(OC)c1OC)-c1c(cc3c(c1OC)OCO3)CC(C)C(C)C2 (stereo not drawn) [Compound 46]	7.8	
COc1cc2c(c(OC)c1OC)-c1c(cc3c(c1OC)OCO3)C[C@H](C)[C@@](C)(O)C2 [Compound 44]	8.6	3.8
COc1cc(CC(C)C(C)Cc2ccc(O)c(OC)c2)ccc1O (stereo not drawn) [Compound 49]	8.2	
C/C=C1\C(=O)CC2C3CCC4=CC(=O)CCC4(C)C3CCC12C (stereo not drawn) [Compound 75]		3.6
COC1CC(OC2CCC3(C=O)C(CCC4C3CCC3(C)C(C5=CC(=O)OC5)CCC43O)C2)OC(C)C1O (stereo not drawn) [Compound 77]	8.1	3.4
